Columns and labels:
circulating suPAR [1] = assay: Circulating suPAR in PodoNet cohort by medication; assay type: in vivo, human; conditions: medication at time of blood sampling
Excerpt: In contrast to FSGS-CT, where patients were randomly assigned to either CSA or MMF therapy, treatment in PodoNet was at the discretion of the attending physicians. For the purpose of this analysis, patients were grouped according to the medication they received at the time of blood sampling: MMF or a calcineurin inhibitor. […] Overall, there was no significant difference between the two groups based on their demographic features or laboratory measurements (e.g., proteinuria, serum albumin, eGFR, and serum creatinine).
PodoNet is a consortium for clinical, genetic, and experimental study of steroid-resistant nephrotic syndrome (SRNS). The inclusion criteria are children (age 0-18 years old) with SRNS based on management protocols at the participating medical centers and adults with familial SRNS. Patients who were included into this study had biopsy proven FSGS (n=94). The treatment of subjects was clinically determined and managed by their attending physician.
(§1) The measurement of serum suPAR was performed using a Quantikine human uPAR immunoassay kit (R&D Systems).

[2] = Proteinuria (Up/c) and serum creatinine in FSGS-CT cohort by treatment arm; assay type: in vivo, human
Protocol: (§2) To explore the effect of treatment on suPAR levels in the circulation, samples were analyzed in patients who were randomly assigned to either the CSA or MMF/dexamethasone arm of the trial. At baseline, there was no difference between the two treatment arms in age at sampling, age at disease onset, gender, race, proteinuria, serum albumin, serum creatinine, or eGFR (FIG. 7) as well as circulating suPAR levels by univariate analysis. […] When examining the alteration from baseline to 26 weeks, suPAR level was increased in CSA arm, but decreased in MMF arm and the changes in suPAR levels between the two arms were significant (P<0.05).
FSGS-CT is a randomized controlled study that compared the efficacy of cyclosporine (CSA) to the combination of mycophenolate mofetil (MMF) and dexamethasone. Key inclusion criteria were age 2-40 years, eGFR>40 ml/min per 1.73 m^2, biopsy-proven FSGS, and resistance to corticosteroid therapy. Exclusion criteria included secondary FSGS, obesity, or prior experimental therapy. […] Subjects were seen 11 times during the treatment period and, at each visit, blood pressure was measured and blood and urine were obtained to determine serum creatinine, eGFR, albumin, cholesterol concentration, and proteinuria (Gipson et al., Kidney Int'l 80:868-878, 2011). […]

circulating suPAR [3] = assay: Serum suPAR in FSGS-CT cohort by treatment arm; assay type: in vivo, human; conditions: for change in serum suPAR level from baseline to 26 weeks: FSGS-CT patients, MMF arm is MMF/dexamethasone
Protocol: as §2
FSGS-CT is a randomized controlled study that compared the efficacy of cyclosporine (CSA) to the combination of mycophenolate mofetil (MMF) and dexamethasone. Key inclusion criteria were age 2-40 years, eGFR>40 ml/min per 1.73 m^2, biopsy-proven FSGS, and resistance to corticosteroid therapy. Exclusion criteria included secondary FSGS, obesity, or prior experimental therapy. All subjects received lisinopril or losartan in those who were intolerant of angiotensin converting enzyme inhibitor. Subjects were treated for 52 weeks. The primary outcome was normalization of proteinuria defined as a urine protein:creatinine ratio (Up/c)<0.2 in a first morning urine sample after 52 weeks of active treatment with the study medication(s). The main secondary outcome was based on the level of proteinuria at 78 weeks, six months after discontinuation of the study drugs. Subjects were seen 11 times during the treatment period and, at each visit, blood pressure was measured and blood and urine were obtained to determine serum creatinine, eGFR, albumin, cholesterol concentration, and proteinuria (Gipson et al., Kidney Int'l 80:868-878, 2011). The serum samples collected at baseline (W01) and 26 weeks (W26) on treatment (n=35 in each arm) were retrieved from the NIDDK Biorepository for suPAR measurement.
as §1

[4] = cited from earlier work
[5] = Retrospective study of recurrent or de novo FSGS after renal transplantation: renal parameters pre-post treatment; assay type: in vivo, human; conditions: for Mean Foot Process Effacement, Mean Post ± SD / Proteinuria, Mean Post ± SD / Serum Creatinine, Mean Post ± SD: post-treatment; for Mean Foot Process Effacement, Mean Pre ± SD / Proteinuria, Mean Pre ± SD / Serum Creatinine, Mean Pre ± SD: pre-treatment
Protocol: Treatment with plasmapheresis (PXP) started at the time of FSGS recurrence or de novo manifesting by the onset or worsening of proteinuria. Subjects completed a median of 21 plasmapheresis sessions (IQR: 10-23). Twelve subjects were refractory to plasmapheresis and received adjunctive rituximab infusion. Eight (32%) subjects had complete remission, and an additional 12 (48%) individuals achieved partial remission. With treatment (Table 5), the overall mean serum creatinine improved from 3.1 mg/dl±2.3 mg/dl to 2.1 mg/dl±1.2 mg/dl (P=0.07), and the mean eGFR improved from 35.6 ml/min±19.4 ml/min to 46.0 ml/min±24.3 ml/min per 1.73 m^2 (P=0.01). Additionally, among responders the serum creatinine declined further from 3.1 mg/dl±2.5 mg/dl to 1.9 mg/dl±0.6 mg/dl (P=0.48).
We conducted a retrospective observational study of all adult renal transplant recipients who underwent renal transplantation between Jan. 1, 2003 to Dec. 31, 2011, and developed recurrent or de novo FSGS after kidney transplantation at a single tertiary hospital. We identified 105 renal transplant recipients aged 18 years and older. Ninety-three had native kidney biopsy-proven FSGS; 12 having a probable FSGS diagnosis. Twenty-five individuals developed de novo FSGS (n=4) and recurrent FSGS (n=21) following renal transplantation. Recurrent FSGS was defined by the presence of proteinuria (more than 1 g/24 hours) in individuals who were anuric prior to renal transplantation ([…]) or worsening proteinuria among those who were not anuric prior to renal transplantation (n=15). De novo FSGS was defined as the new onset of proteinuria following renal transplantation in a recipient whose primary cause of ESRD was not attributed to FSGS. The diagnosis was confirmed by the presence of podocyte foot process effacement on the allograft biopsy obtained prior to or within 14 days of treatment commencement. The Johns Hopkins University School of Medicine Institutional Review Board approved this study.
Socio-demographic and clinical data were abstracted from patient medical records using double data entry from the time of renal transplantation to three years following renal transplantation or the last available clinical follow-up. Donor clinical characteristics collected included donor vital status, relatedness to the recipient, and ABO-compatibility with recipient. Recipient clinical characteristics included age at FSGS diagnosis, primary cause of ESRD, number of prior renal transplantations, duration among those receiving dialysis, serum creatinine and proteinuria defined by urine protein-to-creatinine ratio. Glomerular filtration rate (eGFR) was estimated using the CKD-Epi equation which adjusts for age, gender, and race (Levey et al., Ann. Intern. Med. 150:604-612, 2009). Recipients were treated with plasmapheresis. Those with persistently significant proteinuria were also given one or two rituximab infusions. Complete response was defined by a decrease in proteinuria to below 1 g/g upon completion of the treatment course and/or on the last available quantification of proteinuria. Partial response to therapy was defined as a decline in proteinuria at the end of treatment by 50% from the peak proteinuria level, but with proteinuria remaining 1 g/g or greater at the end of treatment. Renal histopathology was assessed by a renal pathologist using light microscopy, immunofluorescence and electron microscopy. The degree of podocyte foot process effacement was based upon biopsy reports as well as secondary assessments of the electron microscopy by a second renal pathologist blinded to the original biopsy report and the recipient's outcome. These two assessments were then averaged to obtain the mean podocyte foot process effacement, which was categorized as <25% (mild), 25%-74% (moderate), and 75% or greater (severe). Baseline electron microscopy results were obtained from renal biopsies performed prior or shortly after the initiation of therapy. […]

In the case of `COc1c(C)c2c(c(O)c1C/C=C(\C)CCC(=O)OCCN1CCOCC1)C(=O)OC2` [MMF, mycophenolate mofetil], the “circulating suPAR level, patients who received the medication versus those who did not” value (circulating suPAR [1]) is reported as “significantly lower”, the “decrease in serum creatinine from baseline to 26 weeks, MMF arm compared to CSA arm” value ([2]; P<0.001) is reported as “significantly greater decrease” and the “decrease in Up/c from baseline to 26 weeks, MMF arm compared to CSA arm” value ([2]; P<0.05) is reported as “significantly greater decrease”. The “change in serum suPAR level from baseline to 26 weeks” value (circulating suPAR [3]) was “decreased”, the “change in serum suPAR level from baseline to 26 weeks” value (circulating suPAR [3]; listed as mycophenolate mofetil) was “decreased significantly” and the “serum suPAR level after treatment” value (circulating suPAR [3]; FSGS-CT, MMF-treated patients, mean ± SEM (±264), P<0.01) was 4113 pg/mL. The “serum suPAR level before treatment” value (circulating suPAR [3]; FSGS-CT, MMF-treated patients, mean ± SEM (±292)) was 5064 pg/mL.
In the case of `O=C[C@H](O)[C@@H](O)[C@@H](O)[C@H](O)CO` [galactose], the proteinuria outcome ([4]; dialysis-dependent patient (Savin et al., 2008)) is given as “no improvement of proteinuria” and the nephrotic syndrome outcome ([4]; oral galactose, patient resistant to corticosteroids, immunosuppression and plasmapheresis (De Smet et al., 2009)) is given as “remission for more than two years”.
With “PXP + rituximab: plasmapheresis (PXP) with adjunctive rituximab infusion in subjects refractory to plasmapheresis” the “Proteinuria, Most recent” value ([5]; overall, n = 12) was 7 ± 12.7 g/g, the “Proteinuria, Peak” value ([5]; overall, n = 12) was 12.5 ± 12.7 g/g and the “Mean Foot Process Effacement, Mean Post ± SD” value ([5]; overall, n = 10) was 21 ± 27%. For the same compound, the “Proteinuria, Mean Post ± SD” value ([5]; overall, n = 12) was 6.6 ± 12.5 g/g, the “Serum Creatinine, Mean Post ± SD” value ([5]; overall, n = 12) was 2.1 ± 0.88 mg/dL and the “Mean Foot Process Effacement, Mean Pre ± SD” value ([5]; overall, n = 10) was 49 ± 32%. For the same compound, the “Proteinuria, Mean Pre ± SD” value ([5]; overall, n = 12) was 4.4 ± 3.1 g/g, the “Serum Creatinine, Mean Pre ± SD” value ([5]; overall, n = 12) was 3 ± 2.7 mg/dL and the “Proteinuria, Last” value ([5]; responders, n = 9) was 1.7 ± 1.2 g/g. For the same compound, the “Proteinuria, Peak” value ([5]; responders, n = 9) was 7.6 ± 4.9 g/g, the “Mean Foot Process Effacement, Mean Post ± SD” value ([5]; responders, n = 7) was 14 ± 14% and the “Proteinuria, Mean Post ± SD” value ([5]; responders, n = 9) was 1.9 ± 1.4 g/g. The “Serum Creatinine, Mean Post ± SD” value ([5]; responders, n = 12) was 2.1 ± 0.7 mg/dL, the “Mean Foot Process Effacement, Mean Pre ± SD” value ([5]; responders, n = 7) was 34 ± 27% and the “Proteinuria, Mean Pre ± SD” value ([5]; responders, n = 9) was 4.1 ± 3.4 g/g. For the same compound, the “Serum Creatinine, Mean Pre ± SD” value ([5]; responders, n = 12) was 3 ± 2.96 mg/dL.

— patent US9867923B2, “Reducing soluble urokinase receptor in the circulation” (University of Miami, priority 2011, dated 2018)
